In patent US9555061B2, “Synthesis and analysis of compounds capable of inducing differentiation of human mesenchymal stems cells into hepatocytes” (National University Corporation Torrori University, priority 2011, dated 2017):

Columns and labels:
[1] = test system: UE7T-13 cells; assay: RT-PCR of genes encoding liver-specific secretory proteins and cytokines (UE7T-13); type: cell-based, human; conditions: hexachlorophene 0.8 μM or IC-2 15 μM; days 8, 16, 24
Procedure: Bone marrow-derived mesenchymal stem cells (UE7T-13 cells) were treated with a compound, hexachlorophene (H4625-25G; Sigma-Aldrich, Inc.) or IC-2. At that time, gene expression of each of liver-specific secretory proteins and cytokines was evaluated. […] This time point was set to day 0.
At the next day corresponding to day 1, the medium was changed to DMEM containing hexachlorophene at a final concentration of 0.8 μM or IC-2 at a final concentration of 15 μM. […] After that, the medium was replaced twice during 8 days, and the cells were subcultured every 8 days. Then, the similar operation was carried out until day 24. At days 8, 16, and 24 after the initiation of the induction, TRIzol (Invitrogen) was used to extract total RNA according to the attached instruction. After the extraction, deoxyribonuclease (Nippon Gene) was added, and the mixture was incubated at 37° C. for 30 min to remove DNA. In a reverse transcription reaction, SuperScriptII Reverse Transcriptase (Invitrogen) and Oligo(dT)15 primer were added to 1 μg of RNA to convert it into cDNA. In a RT-PCR method, the cDNA was diluted by 5 times. Next, 1 μl of the cDNA was used as a template. Then, rTaq DNA polymerase (TOYOBO) was used to amplify the cDNA. MQ water was used as a negative control. cDNA from Huh-7 or UE7T-13 cells was used as a positive control. […]

[2] = test system: clinical specimen-derived mesenchymal stem cells; assay: RT-PCR of hepatocyte differentiation marker in clinical specimen-derived mesenchymal stem cells; type: cell-based, human; conditions: hexachlorophene 4 μM, HC-2 20 μM, PN-3-13 20 μM, IC-2 40 μM
Procedure: A fresh bone marrow aspirate was collected under informed consent from a patient (a person) with osteoarthritis who underwent replacement arthroplasty at the Department of Orthopedic Surgery, Tottori University Hospital. This aspirate was subjected to density gradient centrifugation using ficoll (Amersham Biosciences) to separate bone marrow mononuclear cells (FIG. 31). These bone marrow mononuclear cells were suspended in 1 ml of Hanks' balanced salt solution (HBSS, Gibco, Life Technologies Corp.) supplemented with a 100-fold diluted APC-labeled anti-CD90 antibody, a 407-fold diluted PE-labeled anti-CD271 antibody, and 2% fetal bovine serum (FBS, Defined, Thermo Fisher Scientific Inc.), and were stained on ice for 30 min. A flow cytometer (MoFlo XDP, Beckman Coulter Inc.) was used to selectively separate mesenchymal stem cells. The resulting cells were cultured in Dulbecco's Modified Eagle's Medium (Low Glucose, Gibco, Life Technologies Corp.) containing 20% FBS, 100 U/ml penicillin, […] streptomycin (Nacalai Tesque), and 20 ng/ml basic fibroblast growth factor (TRANS GENIC INC., Ltd.) on a 35-mm dish under conditions at 37° C. and 5% CO2. The medium was changed every 4 days. After colonies were formed, the cells were detached using a 0.025% trypsin/1 mM EDTA solution (Nacalai Tesque), split on a 100-mm dish, and cultured under conditions at 37° C. and 5% CO2. Then, the cells which were kept 70 to 80% confluent were detached using trypsin treatment. These cells in one dish were divided into four dishes for passage.
Cells were seeded on a 6-well plate at a cell density of 1.8×10^4 cells/cm^2. This day was designated as day 0. At day 1 corresponding to the next day, the medium was changed to a medium containing any one of hexachlorophene (at a final concentration of 4 μM), HC-2 (at a final concentration of 20 μM), PN-3-13 (at a final concentration of 20 μM), IC-2 (at a final concentration of 40 μM), and 0.1% DMSO. […]

[3] = test system: CD90+CD271+ bone marrow-derived mesenchymal stem cells; assay: Urea assay in CD90+CD271+ bone marrow-derived mesenchymal stem cells; type: cell-based, human; conditions: hexachlorophene 4 μM, PN-3-13 20 μM, IC-2 40 μM; day 8 plus 96 h ammonium chloride
Procedure: A urea assay was performed according to the following protocol. CD90^+CD271^+ bone marrow-derived mesenchymal stem cells were seeded on a 24-well plate at a cell density of 1.8×10^4 cells/cm^2. This day was designated as day 0. At day 1 corresponding to the next day, each medium was changed to a medium containing hexachlorophene (at a final concentration of 4 μM), HC-2 (at a final concentration of 20 μM), PN-3-13 (at a final concentration of 20 μM), IC-2 (at a final concentration of 40 μM), or 0.1% DMSO. At day 4, the medium was changed in a manner similar to that at day 1, and the cells were cultured until day 8. At day 8, the medium was removed, and replaced with a medium containing ammonium chloride (Nacalai Tesque) at a final concentration of 5 mM. The cells were further cultured for 96 h. At 96 h after the addition of ammonium chloride, levels of urea in the medium were determined using a QuantiChrom Urea Assay Kit (BioAssay Systems) according to the attached protocol by reading the absorbance at a wavelength of 520 nm with a microplate reader. The levels of urea were calculated based on a standard sample according to the attached calculation method. As a negative control for the urea assay, used were CD90^+CD271^+ bone marrow-derived mesenchymal stem cells that were seeded one day before the day of the immunostaining and were not subjected to the differentiation induction.

[4] = test system: Wnt/β-catenin signaling pathway; assay: Ability of inhibiting Wnt/β-catenin pathway, luciferase assay (UE7T-13); type: cell-based, human; conditions: 8 days after the treatment; pTCF4-CMV-luciferase reporter
Description: FIG. 3 is a schematic diagram illustrating how to establish a human mesenchymal stem cell stably expressing a β-catenin/TCF4/luciferase reporter gene. FIG. 3 illustrates how to construct pTCF4-CMVpro-GL4.20 plasmid by using a luciferase expression vector. The pTCF4-CMVpro-GL4.20 plasmid contains three TCF4 sequences […] upstream of a CMV promoter to express luciferase. In addition, pCMVpro-GL4.20 plasmid was constructed as a control. The resulting plasmids were each linearized, introduced into UE7T-13 by electroporation, and selected using puromycin (0.25 μg/ml) supplemented in a medium. Puromycin-resistant cells were cloned and used for a luciferase assay.
The cell line having a vector stably expressing luciferase was seeded on a 24-well plate, and was cultured at 37° C. At the next day, the medium was changed to a medium containing IC-2, etc., and the cell line was further cultured at 37° C. After that, at days 1, 4, and 8, a luciferase assay system (Promega) was used and the luciferase activity was read with a fluorescence plate reader (ARVO) at a wavelength of 556 nm.

[5] = test system: UE7T-13 cells; assay: Proliferation potential (toxicity), MTT assay (UE7T-13); conditions: for concentration with very low cell toxicity toward UE7T-13 cells: days 2, 4, 8 of treatment
[6] = test system: UE7T-13 cells; assay: Periodic acid-Schiff (PAS) staining (UE7T-13); type: cell-based, human
Procedure: (3-4) Periodic Acid-Schiff (PAS) Staining (UE7T-13) A cover glass (22×22 mm, […]) was sterilized with 70% EtOH and placed in a 6-well plate. Next, cells were seeded on the cover glass and cultured in a medium containing IC-2, etc. At 8, 16, and 24 days after the initiation of the culture, the cells were washed twice with PBS. Then, the cells were treated with 4% paraformaldehyde/PBS for 20 min and fixed onto the cover glass. As a negative control, 10 mg/ml of α-amylase (10 mg/ml; in 0.1 M phosphate buffer solution at pH 6.8) was added, and the cells were incubated therewith at 37° C. for 1 h to digest their glycogen. Subsequently, 1% aqueous periodic acid was used for oxidation treatment for 10 min. After that, the cells were treated with a Schiff reagent for 15 min to stain glycogen. Then, the cells were washed three times with aqueous sulfurous acid and were washed three times with distilled water. After their nuclei were stained with Mayer's hematoxylin, 50% glycerol diluted with PBS was used to mount the cover glass. Finally, the cells were observed under a light microscope. The cells which had been cultured with 0.1% DMSO were used as a control.

SMILES: Oc1c(Cl)cc(Cl)c(Cl)c1Cc1c(O)c(Cl)cc(Cl)c1Cl [hexachlorophene, reference compound]
- expression of a plurality of the liver-specific secretory proteins and cytokines [1]: increased levels of expression
- expression of albumin [2]: induced
- cellular urea synthesis compared with negative control (0.1% DMSO) [3]: apparent increase

SMILES: Cc1ccc(/C=N/NC(=O)c2cccc(Oc3ccccc3)c2)o1 [PN-1-2, N′-[(E)-(5-methyl-2-fulyl)methylidene]-3-phenoxybenzohydrazide]
- concentration that significantly inhibited the Wnt/β-catenin signaling pathway [4]: ≥ 3 µM
- concentration at which proliferation potential did not remain ([5]; day 8): 10 µM
- concentration with very low cell toxicity toward UE7T-13 cells [5]: ≤ 40 µM

SMILES: O=C(N/N=C/c1cccc2ccccc12)c1ccccc1Oc1ccccc1 [PN-3-4, N′-[(E)-1-naphtylmethylidene]-2-phenoxybenzohydrazide]
- concentration that significantly inhibited the Wnt/β-catenin signaling pathway [4]: ≥ 20 µM
- concentration with very low cell toxicity toward UE7T-13 cells [5]: ≤ 30 µM

SMILES: Cc1ccc(C=NNC(=O)c2ccccc2Oc2ccccc2)o1 [PNU-74654, N-[(5-methyl-2-furyl)methylideneamino]-2-phenoxy-benzamide]
- intracellular glycogen accumulation compared with negative control (0.1% DMSO) [6]: did not increase
